According to patent US9242940B2, “N-substituted bis(fluoroalkyl)-1,4-benzodiazepinone compounds” (BRISTOL-MYERS SQUIBB COMPANY, priority 2012, dated 2016):

assay: Metabolic Stability Half-Life Panel, human liver microsomes; format: in vitro ADME; conditions: pH 7.4, human liver microsomes, 0.5 μM compound, NADPH, 45-minute time course, read-out: HLM (t1/2, min.)
Source text: Metabolic Stability Half-Life Panel

| Structure (SMILES) | half-life at 0.5 μM |
| --- | --- |
| NC(=O)[C@@H](CCCC(F)(F)F)[C@@H](CCC(F)(F)F)C(=O)N[C@H]1N=C(c2ccccc2)c2ccccc2N(c2ccccn2)C1=O [Example 1, (2R,3S)-N-((3S)-2-Oxo-5-phenyl-1-(2-pyridinyl)-2,3-dihydro-1H-1,4-benzodiazepin-3-yl)-3-(4,4,4-trifluorobutyl)-2-(3,3,3-trifluoropropyl)succinamide] | ≥ 1.12 h |
| NC(=O)[C@@H](CCC(F)(F)F)[C@@H](CCC(F)(F)F)C(=O)N[C@H]1N=C(c2ccccc2)c2ccccc2N(c2ccc(Cl)cn2)C1=O [Example 2, (2R,3S)-N-((3S)-1-(5-Chloro-2-pyridinyl)-2-oxo-5-phenyl-2,3-dihydro-1H-1,4-benzodiazepin-3-yl)-2,3-bis(3,3,3-trifluoropropyl)succinamide] | ≥ 1.12 h |
| NC(=O)[C@@H](CCC(F)(F)F)[C@@H](CCC(F)(F)F)C(=O)N[C@H]1N=C(c2ccccc2)c2cc3c(cc2N(c2ccccn2)C1=O)OCO3 [Example 3, (2R,3S)-N-((7S)-6-Oxo-9-phenyl-5-(2-pyridinyl)-6,7-dihydro-5H-[1,3]dioxolo[4,5-h][1,4]benzodiazepin-7-yl)-2,3-bis(3,3,3-trifluoropropyl)succinamide] | ≥ 1.12 h |
| NC(=O)[C@@H](CCCC(F)(F)F)[C@@H](CCC(F)(F)F)C(=O)N[C@H]1N=C(c2ccccc2)c2ccccc2N(c2cccnc2)C1=O [Example 4, (2R,3S)-N-((3S)-2-Oxo-5-phenyl-1-(3-pyridinyl)-2,3-dihydro-1H-1,4-benzodiazepin-3-yl)-3-(4,4,4-trifluorobutyl)-2-(3,3,3-trifluoropropyl)succinamide] | ≥ 1.12 h |
| NC(=O)[C@@H](CCC(F)(F)F)[C@@H](CCC(F)(F)F)C(=O)N[C@H]1N=C(c2ccccc2)c2ccccc2N(c2cccnc2)C1=O [Example 5, (2R,3S)-N-((3S)-2-Oxo-5-phenyl-1-(3-pyridinyl)-2,3-dihydro-1H-1,4-benzodiazepin-3-yl)-2,3-bis(3,3,3-trifluoropropyl)succinamide] | ≥ 1.12 h |
| COc1ccc(C2=N[C@H](NC(=O)[C@H](CCC(F)(F)F)[C@H](CCC(F)(F)F)C(N)=O)C(=O)N(CC3CC3)c3ccccc32)cc1 [Example 6, (2R,3S)-N-((3S)-1-(Cyclopropylmethyl)-5-(4-methoxyphenyl)-2-oxo-2,3-dihydro-1H-1,4-benzodiazepin-3-yl)-2,3-bis(3,3,3-trifluoropropyl)succinamide] | ≥ 1.12 h |
| COc1ccc2c(c1)C(c1ccccc1)=N[C@H](NC(=O)[C@H](CCC(F)(F)F)[C@H](CCC(F)(F)F)C(N)=O)C(=O)N2CC(F)(F)F [Example 7, (2R,3S)-N-((3S)-7-Methoxy-2-oxo-5-phenyl-1-(2,2,2-trifluoroethyl)-2,3-dihydro-1H-1,4-benzodiazepin-3-yl)-2,3-bis(3,3,3-trifluoropropyl)succinamide] | ≥ 1.12 h |
| CC(F)(F)C[C@H](C(N)=O)[C@@H](CCC(F)(F)F)C(=O)N[C@H]1N=C(c2ccccc2)c2ccccc2N(CC2CC2)C1=O [Example 8, (2R,3S)-N-((3S)-1-(Cyclopropylmethyl)-2-oxo-5-phenyl-2,3-dihydro-1H-1,4-benzodiazepin-3-yl)-3-(2,2-difluoropropyl)-2-(3,3,3-trifluoropropyl)succinamide] | ≥ 1.12 h |
| CC(F)(F)C[C@@H](C(=O)N[C@H]1N=C(c2ccccc2)c2ccccc2N(CC2CC2)C1=O)[C@H](CCC(F)(F)F)C(N)=O [Example 9, (2R,3S)-N-((3S)-1-(Cyclopropylmethyl)-2-oxo-5-phenyl-2,3-dihydro-1H-1,4-benzodiazepin-3-yl)-2-(2,2-difluoropropyl)-3-(3,3,3-trifluoropropyl)succinamide] | ≥ 1.12 h |
